Results as given in ChEMBL document CHEMBL1201862, “PubChem BioAssay data set” (2004).
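Following 48 hours of exposure in 96-well plates, responses at five concentrations were used to interpolate endpoints linearly. GI50 is the concentration that inhibits growth by half.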 Calls of active or inactive are those of the source. Rule as the data show it: active = GI50 up to about 1.1 µM and inactive = higher.

Legend:
Experiment in all cases: NCI tumour cell line growth inhibition, 48 h
A549 = system: A549
DU-145 = system: DU-145
HCC 2998 = system: HCC 2998
HT-29 = system: HT-29
K562 = system: K562
MDA-MB-231 = system: MDA-MB-231
MDA-N = system: MDA-N
MOLT-4 = system: MOLT-4
RXF 393 = system: RXF 393
SF-295 = system: SF-295
SK-OV-3 = system: SK-OV-3
SW-620 = system: SW-620
T47D = system: T47D
UACC-257 = system: UACC-257
ACHN = system: ACHN
HL-60 = system: HL-60
TK-10 = system: TK-10

Measured: GI50

O=C1C[C@@H](c2ccccc2)O[C@@H](c2ccccc2)C1
inactive: A549 > 100 µM | DU-145 > 100 µM | HCC 2998 > 100 µM | HT-29 > 100 µM | K562 > 100 µM | MDA-MB-231 > 100 µM | MDA-N 58.6 µM | MOLT-4 > 100 µM | RXF 393 > 100 µM | SF-295 > 100 µM | SK-OV-3 > 100 µM | SW-620 > 100 µM | T47D > 100 µM | UACC-257 > 100 µM

CC(=O)N[C@@H](Cc1ccc(O)cn1)C(=O)NCc1ccc(Cl)cc1
inactive: A549 > 100 µM | ACHN > 100 µM | DU-145 > 100 µM | HCC 2998 > 100 µM | HL-60 > 100 µM | HT-29 > 100 µM | K562 > 100 µM | MDA-N > 100 µM | MOLT-4 > 100 µM | RXF 393 > 100 µM | SF-295 > 100 µM | SK-OV-3 > 100 µM | SW-620 > 100 µM | T47D 94 µM | TK-10 > 100 µM | UACC-257 47.5 µM

COc1ccccc1N1CCN(CCCNC(=O)c2cc(Cl)c(N)c(Cl)c2)CC1
inactive: A549 61.9 µM | ACHN 55.2 µM | DU-145 88.1 µM | HCC 2998 21.5 µM | HL-60 15.5 µM | HT-29 24.1 µM | MDA-MB-231 22.9 µM | MOLT-4 19.8 µM | RXF 393 27 µM | SF-295 16.3 µM | SK-OV-3 69.8 µM | SW-620 37.5 µM | T47D 42.9 µM | TK-10 54.2 µM | UACC-257 22.8 µM

CN(C)CCNC(=O)Cn1ccc(=O)c2ccc([N+](=O)[O-])cc21
inactive: A549 > 100 µM | ACHN > 100 µM | DU-145 > 100 µM | HCC 2998 > 100 µM | HL-60 > 100 µM | HT-29 52 µM | K562 > 100 µM | MDA-N > 100 µM | MOLT-4 > 100 µM | RXF 393 > 100 µM | SF-295 > 100 µM | SK-OV-3 > 100 µM | SW-620 > 100 µM | T47D > 100 µM | TK-10 > 100 µM | UACC-257 > 100 µM

CCN(CC)c1c(-c2c(OC(C)C)c(=O)c2=O)c(=O)n2ccsc2c1OC(C)=O
inactive: ACHN > 100 µM | DU-145 > 100 µM | HCC 2998 > 100 µM | HL-60 85.3 µM | HT-29 > 100 µM | K562 > 100 µM | MDA-MB-231 > 100 µM | MDA-N > 100 µM | MOLT-4 > 100 µM | SF-295 > 100 µM | SK-OV-3 > 100 µM | SW-620 > 100 µM | TK-10 > 100 µM | UACC-257 > 100 µM

Cn1ccnc1CC(C)(O)c1ccccc1 (stereo unspecified)
inactive: A549 > 100 µM | ACHN > 100 µM | DU-145 > 100 µM | HCC 2998 > 100 µM | HT-29 > 100 µM | K562 > 100 µM | MDA-MB-231 > 100 µM | MDA-N > 100 µM | RXF 393 > 100 µM | SF-295 > 100 µM | SK-OV-3 > 100 µM | SW-620 > 100 µM | TK-10 > 100 µM | UACC-257 > 100 µM

O=[N+]([O-])c1ccc2nc(O)c(/C=C(\O)c3ccccc3)nc2c1
inactive: A549 7.64 µM | ACHN 26.4 µM | DU-145 > 100 µM | HCC 2998 > 100 µM | HT-29 > 100 µM | K562 > 100 µM | MDA-MB-231 3.57 µM | MDA-N 93.5 µM | MOLT-4 > 100 µM | RXF 393 20.6 µM | SF-295 18.8 µM | SK-OV-3 12.3 µM | T47D 61.7 µM | TK-10 4.13 µM | UACC-257 > 100 µM

C=CC(c1ccccc1)C1(O)c2cccc(O)c2C(=O)c2c(O)cccc21 (stereo unspecified)
inactive: A549 14.7 µM | ACHN 17.8 µM | DU-145 14.5 µM | HCC 2998 10.8 µM | HT-29 11.5 µM | K562 6.64 µM | MDA-MB-231 18.3 µM | MDA-N 5.57 µM | MOLT-4 11.9 µM | RXF 393 14.2 µM | SF-295 14.9 µM | SW-620 15.1 µM | T47D 16.9 µM | TK-10 19.2 µM | UACC-257 17.8 µM

COC(OC)C1OCC(n2cc(F)c(=O)[nH]c2=O)C1O (stereo unspecified)
inactive: A549 > 100 µM | ACHN > 100 µM | DU-145 > 100 µM | HCC 2998 > 100 µM | HT-29 > 100 µM | K562 > 100 µM | MDA-MB-231 > 100 µM | MDA-N > 100 µM | MOLT-4 > 100 µM | RXF 393 42.9 µM | SF-295 > 100 µM | SK-OV-3 > 100 µM | SW-620 > 100 µM | T47D > 100 µM | TK-10 > 100 µM | UACC-257 > 100 µM

O=C1CCSSCCC(=O)Nc2ccccc2N1
inactive: A549 > 100 µM | ACHN > 100 µM | DU-145 > 100 µM | HL-60 > 100 µM | HT-29 > 100 µM | K562 53.5 µM | MDA-MB-231 > 100 µM | MOLT-4 34 µM | RXF 393 > 100 µM | SF-295 > 100 µM | SK-OV-3 > 100 µM | SW-620 > 100 µM | T47D > 100 µM | TK-10 > 100 µM | UACC-257 > 100 µM

O=c1[nH]c(=O)n(CCOc2ccc(Cl)cc2)cc1Nc1ccccc1
inactive: A549 > 100 µM | ACHN > 100 µM | DU-145 > 100 µM | HCC 2998 > 100 µM | HL-60 > 100 µM | HT-29 > 100 µM | K562 > 100 µM | MDA-N > 100 µM | MOLT-4 > 100 µM | RXF 393 > 100 µM | SF-295 12.4 µM | SW-620 > 100 µM | UACC-257 > 100 µM

Cn1c(=O)cc(NCc2ccc(Cl)cc2)[nH]c1=O
inactive: A549 > 100 µM | ACHN 49.7 µM | HCC 2998 99.5 µM | HT-29 > 100 µM | K562 > 100 µM | MDA-MB-231 49.2 µM | MDA-N > 100 µM | RXF 393 68.7 µM | SF-295 30.3 µM | SK-OV-3 > 100 µM | SW-620 > 100 µM | T47D 91.2 µM | TK-10 21.5 µM | UACC-257 > 100 µM

CCCc1c(OC)c(=O)c2c(O)cc(OC)c3c4c(OC)cc(O)c5c(=O)c(OC)c(CCC)c(c1c23)c54
inactive: A549 1.32 µM | ACHN 4.51 µM | DU-145 3.76 µM | HCC 2998 14.7 µM | HT-29 4.79 µM | K562 2.33 µM | MDA-MB-231 2.46 µM | MDA-N 4.05 µM | MOLT-4 1.6 µM | SF-295 9.62 µM | SK-OV-3 9.77 µM | SW-620 3.15 µM | TK-10 44.7 µM | UACC-257 13.4 µM

C=C(C)C(=O)N1c2ccc(OC)cc2CC1C(=O)OCC (stereo unspecified)
inactive: A549 > 100 µM | ACHN > 100 µM | DU-145 > 100 µM | HCC 2998 > 100 µM | HL-60 > 10 µM | HT-29 > 100 µM | K562 > 100 µM | MDA-MB-231 > 100 µM | MDA-N > 100 µM | MOLT-4 > 100 µM | SF-295 > 100 µM | SK-OV-3 > 100 µM | SW-620 > 100 µM | T47D 26.7 µM | TK-10 > 100 µM | UACC-257 > 100 µM

O=S(=O)(O)c1ccc(-c2c3nc(c(-c4ccc(S(=O)(=O)O)cc4)c4ccc([nH]4)c(-c4ccc(S(=O)(=O)O)cc4)c4nc(c(-c5ccc(S(=O)(=O)O)cc5)c5ccc2[nH]5)C=C4)C=C3)cc1
inactive: A549 55.6 µM | ACHN 45.7 µM | DU-145 39.1 µM | HL-60 55.5 µM | HT-29 49.8 µM | K562 37.2 µM | MDA-MB-231 20.9 µM | MOLT-4 3.1 µM | RXF 393 26.9 µM | SF-295 47.4 µM | SK-OV-3 58.3 µM | SW-620 97.5 µM | T47D 33 µM | TK-10 21.6 µM | UACC-257 > 100 µM

CCOC(=O)c1c(-c2ccc(OC)cc2)ccn1C
inactive: A549 > 10 µM | ACHN > 10 µM | DU-145 > 10 µM | HCC 2998 > 10 µM | HT-29 > 10 µM | K562 > 10 µM | MDA-MB-231 > 10 µM | MOLT-4 > 10 µM | RXF 393 9.1 µM | SF-295 > 10 µM | SK-OV-3 > 10 µM | SW-620 > 10 µM | T47D > 10 µM | TK-10 > 10 µM | UACC-257 > 10 µM

COc1ccc(C)cc1NC(=S)N/N=C/c1ccc(SC)cc1
inactive: A549 > 100 µM | ACHN > 100 µM | DU-145 66.8 µM | HL-60 31.8 µM | HT-29 34.1 µM | K562 35.4 µM | MDA-N 36.3 µM | MOLT-4 45.4 µM | RXF 393 58.5 µM | SF-295 69.5 µM | SK-OV-3 19.5 µM | SW-620 53.8 µM | T47D 60.7 µM

O[C@@H]1C[C@H](Cl)c2c(Cl)sc(Cl)c21
inactive: A549 > 100 µM | ACHN > 100 µM | DU-145 > 100 µM | HCC 2998 > 100 µM | HT-29 > 100 µM | K562 > 100 µM | MDA-MB-231 > 100 µM | MDA-N > 100 µM | MOLT-4 > 100 µM | RXF 393 > 100 µM | SF-295 > 100 µM | SK-OV-3 > 100 µM | SW-620 > 100 µM | T47D 33.4 µM | TK-10 > 100 µM | UACC-257 > 100 µM
